Source: patent US12171864B2, “Biological self-assembled nanocrystal injection having a lymphatic targeting function and preparation method” (SHENZHEN CHINA RESOURCES JIUCHUANG MEDICAL AND …, priority 2017, dated 2024)
Counter-ions that a name gives are not always drawn.

Legend:
[1] = Effect of pH on the drug stability (drug content after 0.22 μm filtration); assay type: physicochemical; details: filtered 0.22 μm
Method: Mitoxantrone hydrochloride was used as a model drug. The pH of the injection was adjusted to 1.5, 2.0, 2.5, 3.5, 4.5, 5.5, 6.0, 6.5, and 7.0, respectively. At one hour after adjusting the pH value, the content of the drug was determined after filtration through a 0.22 μm membrane. When the pH was between 1.5 and 6.0, the drug content was from 98.45±0.61% to 101.72±0.20%.

lymph nodes [2] = assay: Effect of pH on the drug targeting ability (lymph node staining); assay type: in vivo, Kunming mice
Text: Mitoxantrone hydrochloride was used as a model drug. The pH of the injection was adjusted to 1.5, 2.0, 2.5, 3.5, 4.5, 5.5, and 6.0, respectively. The mode of administration of interstitial injection was selected for subcutaneous injection in the paws of Kunming mice. At the pre-set time points, the mice were sacrificed by cervical dislocation, and the first, second and third classes of lymph nodes of the mice were removed for observation of staining.

injection site = assay: Effect of the osmotic pressure on the irritation of the injection site (H&E staining); assay type: in vivo, Kunming mice
Text: (§1) Mitoxantrone hydrochloride was used as a model drug. The osmotic pressure of the injection was adjusted to 112, 196, 285, 307, 1503, 2317, and 3011 mmol/Kg, respectively. The mode of administration of interstitial injection was selected for subcutaneous injection in the paws of Kunming mice. At the pre-set time points, the mice were sacrificed by cervical dislocation, and the administration sites of the mice were taken for H&E staining to evaluate local irritation.

lymph nodes [3] = assay: Effect of the osmotic pressure on the drug targeting ability (lymph node staining); assay type: in vivo, Kunming mice
Text: as §1, with “the first, second and third classes” for “the administration sites”, “of lymph nodes” for “of the mice”, “were removed” for “were taken”, “for observation of staining.” for “for H&E staining to evaluate local irritation.”

## O=C1c2c(O)ccc(O)c2C(=O)c2c(NCCNCCO)ccc(NCCNCCO)c21 [Mitoxantrone hydrochloride]
[1]; pH 6.5, one hour after adjusting pH
  drug content: 83.76±0.53%
[1]; pH 7.0, one hour after adjusting pH
  drug content: 75.38±0.22%
Lymph nodes [2]; pH 2.0, 2.5 or 6.0, subcutaneous injection in the paws
  color of third class of lymph nodes: light blue
Lymph nodes [2]; pH between 2.0 and 6.0, subcutaneous injection in the paws
  staining of lymph nodes: the three classes of lymph nodes could be stained
Lymph nodes [2]; pH between 3.5 and 5.5, subcutaneous injection in the paws
  staining of lymph nodes: all the three classes of lymph nodes could be stained into dark blue
Lymph nodes [2]; pH less than 2.0, subcutaneous injection in the paws
  staining of lymph nodes: only one class of lymph nodes could be stained
Injection site; osmotic pressure 3011 mmol/Kg, subcutaneous injection in the paws
  local irritation of the injection site: redness and swelling occurred and the H&E staining showed local irritation
Injection site; other osmotic pressure values (112, 196, 285, 307, 1503, 2317 mmol/Kg)
  local irritation of the injection site: did not show obvious local irritation
Lymph nodes [3]; osmotic pressure 285 or 2317 mmol/Kg
  color of third class of lymph nodes: light blue
Lymph nodes [3]; osmotic pressure between 285 and 2317 mmol/Kg
  staining of lymph nodes: all the three classes of lymph nodes could be stained
Lymph nodes [3]; osmotic pressure between 307 and 1503 mmol/Kg
  staining of lymph nodes: all the three classes of lymph nodes could be stained into dark blue
Lymph nodes [3]; osmotic pressure less than 285 mmol/Kg
  staining of lymph nodes: only one class of lymph nodes could be stained
